Data taken from PMC3183052, “Immunoprotectivity of HLA-A2 CTL Peptides Derived from Respiratory Syncytial Virus Fusion Protein in HLA-A2 Transgenic Mouse” (PLoS ONE, 2011).

Columns and labels:
[1] = test system: pulmonary CD8+ T lymphocytes; test: Number of CD8+ T cells in the lungs by flow cytometry after RSV challenge; format: in vivo, mouse; conditions: day 4 post RSV infection; flow cytometry of lung homogenate
Description: Whole lungs were perfused with 5 mL 1× PBS before excision. The isolated lung tissues were incubated with 1 µg/mL collagenase for 30 min before homogenizing with the iron mesh. The homogenate was centrifuged at 1,000 rpm for 10 min at 4°C to sediment the pulmonary cells. The cells were washed with 1× PBS and then resuspended in 1× PBS for further analysis by real-time RT-PCR and flow cytometry. For pulmonary IFN-γ detection, 5×10^6/mL cells were cultured with 10 U/mL recombinant IL-2 for 2 days and the supernatants were collected for ELISA.
Figure 5 Induction of pulmonary IFN-γ and CTL activity in peptide immunized transgenic mice challenged with RSV. At day 4 post RSV infection, lung homogenates were prepared and the following were measured. (A) IFN-γ expression by ELISA, and (B) the number of CD8^+ T cells in the lungs by flow cytometry using PE-cy5-labeled anti-CD8 antibody. (C). Enumeration of CTL activity in the lungs of mice immunized with CD8 peptide epitopes and challenged with RSV. […] The cell mixtures were labeled with 7-AAD and analyzed by flow cytometry. Results are expressed as mean percentage of 7-AAD/CFSE positive cells normalized with un-pulsed DCs. […]

[2] = test system: peptide-loaded dendritic cells from HLA-Tg B6 mice; test: In vitro CTL assay (CFSE/7-AAD) with pulmonary effector lymphocytes; format: cell-based, mouse; conditions: pulmonary effector lymphocytes of immunized, RSV-challenged mice; peptide-loaded CFSE-labeled DCs; E:T 10:1 and 50:1; 7-AAD/CFSE flow cytometry
Description: Dendritic cells (DCs) isolated from HLA-A*0201-Tg B6 mice were used as target cells for CTL assay. Briefly, tibia were isolated from 6–8 weeks old mice and rinsed with 75% alcohol before their incubation with lymphocyte culture medium (LCM, RPMI containing 5% FBS, 20 mM HEPES, 50 µM 2-mecaptoenthanol, 1× P/S). The myeloid tissues were removed from the tibia with LCM and filtrated through 40 µm cell strainer (BD Falcon). The filtrates were centrifuged at 1200 rpm for 5 minutes and the cell pellet was resuspended in 2 mL RBC lysis solution (eBioscience), and incubated for 5 minutes followed by addition of 10 mL of 1× PBS buffer to stop lysis. […]
A non-radioactive assay for cell-mediated cytotoxicity using a green fluorescent probe CFSE to label target cells in combination with 7-amino-actinomycin D (7AAD), a red fluorescent probe to label dead effectors and target cells, was used to assess the presence of RSV F protein-specific CTLs in spleens or lungs of the immunized animals. […] CFSE was measured in FL1 channel and 7-AAD in FL3 channel. The percentage of CFSE/7-AAD double positive target cells (i.e., DCs cell death) was analyzed. […]
Figure 5 Induction of pulmonary IFN-γ and CTL activity in peptide immunized transgenic mice challenged with RSV. At day 4 post RSV infection, lung homogenates were prepared and the following were measured. […]

Question: “YMLTNSELL [peptide 14, HLA-A*0201-restricted 9-mer synthetic peptide from F protein of RSV-B1 strain]” was tested. Which “pulmonary CD8+ T cell numbers vs vehicle immunization” value [1] did it give?
Answer: lower

Question: And the “CTL activity, target cell lysis” value [2]?
Answer: efficient in target cell lysis
